Measured values as given in patent US11465978B2, “Anthranilic amides and the use thereof” (THE ADMINISTRATORS OF THE TULANE EDUCATIONAL FUND, priority 2013, dated 2022).

Test system: pERK5
Test: Western blot, inhibition of EGF-mediated formation of pERK5 in MDA-MB-231 cells
Format: cell-based
Description: FIG. 9 is a set of bar graphs showing a Western blot analysis of potential MEK5 inhibitors. The MDA-MB-231 triple negative breast cancer cell line was pretreated with compounds (10 μM) for 30 minutes followed by stimulation with epidermal growth factor (EGF, 50 ng/mL) for 15 minutes. Vehicle-treated cells were pretreated with DMSO for 30 minutes prior to EGF stimulation for 15 minutes. Protein visualization and quantification analysis were performed using LI-COR Odyssey Imager. * P<0.05 vs. Vehicle, one-way ANOVA followed by Tukey-Kramer test (n=3).
A number of compounds were tested for their potential as MEK5 inhibitors. The MDA-MB-231 triple negative breast cancer cell line was pretreated with 10 μM of compounds 24, 9b, 9a, 9c, 9e, 9f, 9d, 9h, 23, 7, and 15 for 30 minutes followed by stimulation with epidermal growth factor (EGF, 50 ng/mL) for 15 minutes. Vehicle-treated cells and known MEK1/2 inhibitor cells were pretreated with DMSO and U0126 respectively for 30 minutes prior to EGF stimulation for 15 minutes. Protein visualization and quantification analysis was performed using LI-COR Odyssey Imager. The results of the Western blot analysis are shown in FIG. 9. * P<0.05 vs. Vehicle, one-way ANOVA followed by Tukey-Kramer test (n=3).
MDA-MB-231 cells were grown on 10 cm cell culture plates [Sarstedt] in Dulbecco's Modified Eagle's Medium (DMEM; Gibco) with Ham's F12 Nutrient Mixture (1:1) (Invitrogen), 10% heat-inactivated FBS [Atlanta Biological and 0.5% penicillin/streptomycin [Gibco]. Cells were maintained at 37° C. with 5% CO2. Plating of the cells was done 36 hours before treatment in 35 mm culture plates [Sarstedt] and allowed to reach confluence. To test MEK-5 inhibitors, the cells were treated with epidermal growth factor (EGF; Sigma-Aldrich) 30 min after treatment with the compounds. 15 min after the addition of EGF, the cells were washed with 1×PBS [Sigma-Aldrich] and then lysed in 1% Triton X-100 buffer containing 20 mM Tris (pH 6.8), 137 mM NaCl, 25 mM beta glycerophosphate, 2 mM NaPPi, 2 mM EDTA, 1 mM Na3VO4, 10% glycerol, 5 μg/mL leupeptin, 5 μg/mL aprotinin, 2 mM benzamidine, 0.5 mM DTT, and 1 mM PMSF. The lysates were then centrifuged at 10,000 rpm for 10 min at 4° C.
Total protein content was assessed by Bradford Bio-Rad protein assay (Cat. No. 500-0006, Bio-Rad, Hercules, Calif.) and 30 μg of protein was loaded on a 8% SDS-PAGE gel for phosphorylated and total ERK1/2 and ERK5 proteins. After running the samples, gels were transferred to a nitrocellulose membrane (Cat. No. 926-31092, Licor Biosciences, Lincoln, Nebr.). After transfer, membranes were washed for 5 min with 1×PBS and blocked for 1 h in a Casein Blocking Buffer (Cat. No. 927-40200, Licor Biosciences) at room temperature. Membranes were then incubated overnight at 4° C. in primary antibody in CBB with 0.2% Tween-20. Antibodies included rabbit anti-phospho-ERK1/2 (Dilution—1:1000, Cat. No. 9101, Cell Signaling, Beverly, Mass.), mouse anti-total ERK1/2 (Dilution—1:1000, Cat. No. 9107, Cell Signaling), and rabbit anti-total ERK5 (Dilution—1:1,000, Cat. No. 3372, Cell Signaling). Mouse anti-α-Tubulin (Dilution—1:10,000, Cat. No. T5168, Sigma-Aldrich) was used as a loading control. After incubation with primary antibody, blots were washed in 1×PBS solution with 0.2% Tween-20 (1×PBS-T) and incubated with goat anti-rabbit (Dilution—1:10,000, Cat. No. 926-68021, LICOR Biosciences) and goat anti-mouse (Dilution—1:10,000, Cat. No. 926-32210, LICOR Biosciences) secondary antibodies for 1 h at room temperature. After washing the membranes with 1×PBS-T, the protein bands were visualized on an Odyssey Infrared Imager and quantified with Odyssey software (LICOR Biosciences).

NC(=O)c1ccc(F)c(F)c1Nc1ccc(I)cc1F [Compound 3, 3,4-difluoro-2-((2-fluoro-4-iodophenyl)amino)benzamide]
pERK-5 decrease (%) (Example 3 table, DMSO = 0, MDA-MB-231, EGF stimulation): 59% | inhibition at 10 µM (Homo sapiens, MDA-MB-231, Table 1, MDA-MB-231, compounds 10 μM 30 min, then EGF 50 ng/mL 15 min, read-out: cellular pERK5 decrease (%)): 56.5%
